# Reference: patent US12414990B2, “Use of HLA-A*11:01-restricted hepatitis B virus (HBV) peptides for identifying HBV-specific CD8+ T cells” (AGENCY FOR SCIENCE, TECHNOLOGY AND RESEARCH, priority 2019, dated 2025)
# Entries after “also recorded” stand apart in the source; their conditions may differ.
# Assays:
# [1] = tested on: virus-specific CD8+ T cells in patient PBMC; experiment: In vitro virus-specific CD8+ T cell expansion by peptide stimulation with intracellular cytokine staining; type: cell-based, human
# Protocol: PBMC from patients were thawed and recovered, and then resuspend in AIM-V medium (with 2% human AB serum, 1% penicillin/streptomycin/L-glutamine, 1% 1M HEPES) (Gibco, Invitrogen) with 20 IU/ml of recombinant human IL-2 (R&D). Cells were pulsed with corresponded HBV or control peptides at 1 μM per 1 million cells in 200 μl medium in 96-well round-bottom tissue culture plate and cultured for 10 days at 37° C. Half of the medium was replaced as supplementary every three days without any peptide. […] After incubation, cells were collected and then stained with the 50-plex pMHC tetramers (table S1) and surface antibodies. Intracellular cytokine staining was performed on the second day as indicated in (table S2). All staining, cellular barcoding, and CD8 T cell enrichment were done in the same manner as ex vivo staining described above.
# [2] = tested on: antigen-specific CD8+ T cells; experiment: High-dimensional phenotypic profiling of antigen-specific CD8+ T cells (t-SNE, Phenograph, One-SENSE, Scorpius); type: cell-based, human
# Protocol: Validated antigen-specific CD8+ T cells were exported individually from each donor for dimensionality reduction analysis. Detailed methodology for t-SNE and One-SENSE can be found elsewhere. Briefly, t-SNE and One-SENSE were performed using custom R scripts based on “flowCore” and “Rtsne” packages downloaded from The Comprehensive R Archive Network (CRAN). All data were transformed using the “logicleTransform” function and w=0.25, t=16409, m=4.5, a=0 as input parameters to roughly match scaling historically used in FlowJo. Cellular markers analyzed by t-SNE and One-SENSE were indicated (table S2). For One-SENSE, cellular markers in each T cell category (“Differentiation+TNFR”, “Exhaustion” and “Trafficking”) were subjectively assigned for categorical analysis. Aligned heatplots represent the distribution of marker positive cells in percentage on each “bin” on the axis (category) constructed by cells residing in small ranges of values. Positive population of markers was manually defined and markers of the same category were combined for each dimension using 250 bins.
# Logistic regression was performed using the drc R package (v 3.0.1) using a 3-parameters logistic model.
# [3] = tested on: HLA-A*11:01-restricted antigen-specific CD8+ T cells in patient's PBMC; experiment: Highly multiplexed combinatorial pMHC tetramer staining with mass cytometry (epitope mapping, frequency of antigen-specific CD8+ T cells); details: ex vivo PBMC; groups IT, IA, InA, R, HD, CB
sequence,measurement,setting,value
LVVDFSQFSR (Hepatitis B virus) [HBV-P-387],expansion of antigen-specific CD8+ T cells upon peptide stimulation,"[1]; 10 days in vitro culture, 1 μM peptide",less expanded in IT patients
same,functional subset of virus-specific CD8+ T cells after antigen recall (One-SENSE),"[1]; 10 days in vitro peptide stimulation, restimulation 7 hours",multi-functional subset
same,numbers of co-expressed inhibitory receptors on epitope-specific CD8+ T cells,"[2]; Boolean strategy, across patient groups",no differences in terms of the numbers accumulated on the cells across patient groups
same,proportion of cells with C13-like phenotype (CXCR3+CD27hiCD127hi) within HBVpol387-specific CD8+ T cells,[2]; IT patients,~80%
same,detection / frequency of epitope-specific CD8+ T cells across patient groups,[3],highest frequencies observed; also recorded: relatively high frequency in CHB and also in half of the HD tested
